Experimental data from patent US20150133341A1, “Intra-Operative Cancer Diagnosis Based on a Hyperpolarized Marker” (ALBEDA INNOVATIONS APS, priority 2012, published 2015).
Marks after values point to notes of the source that are not given here.

Assays:
[1] = tested on: human breast cancer cells (MCF-7); assay: Metabolism of hyperpolarized substrates in intact human breast cancer cells; format: cell-based; conditions: for Metabolic conversion (a.u.) MCF-7 cells: 20 million cells, maximum signal of product 1-13C lactate; for conversion in breast cancer cells over lymphocytes: quantified by cell number
Method: (§1) Human breast cancer cells (MCF-7) and human prostate cancer cells (PC-3) were grown in RPMI medium with 10% FBS and antibiotics. The cells were at confluence harvested by trypsination and washed once with 5 ml PBS. They were spun down and re-dissolved to a concentration of 20 million cells in 500 μl 40 mM phosphate buffer pH 7.3.
(§2) The cell suspensions were transferred to a 10 mm NMR tube and placed with connecting tubing in a 14.1 T magnet at 37 C.
(§3) Finland radical, carboxylic acid form (1 mg, 0.65 μmol) was dissolved in 1,3-^13C2 ethyl acetoacetate (50 μl, 51 mg, […]). To the solution was added a DMSO solution of the gadolinium complex ([alfa1,alfa4,alfa7-tris[(phenylmethoxy)methyl]-1,4,7,10-tetraazacyclododecane-1,4,7,10-tetraacetato(4-)]gadolinate(1-)]hydrogen) (0.8 mg of a 100 μmol/g solution). The concentration of radical and gadolinium were 13 mM and 1.6 mM respectively. 20 μmol of this composition was hyperpolarised under DNP conditions at 1.2 K in a 3.35 T magnetic field under irradiation with microwave (93.900 GHz). The polarization build-up constant was 750 s. The solid-state polarization was approx. 20%.
(§4) The hyperpolarized sample was dissolved in 5 ml phosphate buffer (40 mM, pH 7.3). The pH after dissolution was 7.3. Following dissolution, 1 ml of the substrate mixture was injected into 20 million cells in suspension. A series of 20 degree pulses every 2 s (56 scans in total) was acquired. The acquisition was started just before injection of the hyperpolarized substrate. Data are presented metabolic signal build-up as a function of time and as maximum metabolite signal.
(§5) The cells were grown and harvested or purified as described in example 3.10. The experiments were performed with single substrates administered to 20 million MCF-7 cells, PC-3 cells or lymphocytes dissolved in a volume of 500 μl 40 mM phosphate buffer pH 7.3. The cell suspensions were transferred to a 10 mm NMR tube and placed with connecting tubing in a 14.1 T magnet at 37° C.
^13C6-d7-glucose (22.8 mg, 0.118 mmol) was dissolved in polarization medium (25.0 mg). The polarization medium was made of Ox063 radical (19.1 mg, 13.3 μmol) was dissolved in 465 μl water. To this solution was added Gadoteridol (40 mg of 50 μmol/g solution in water). Concentrations: [Ox063]=26.5 mM, [Gd]=4 mM. The total weight of the glucose preparation was: 47.8 mg yielding 2.47 mmol glucose/g preparation.
1-^13C pyruvic acid (55 μl, 70.0 mg) was mixed with Finland radical, sodium salt (1.5 mg, 0.94 μmol) and Gadoteridol (2.1 mg of 50 μmol/g solution in water). Concentrations of radical and Gadolinium were: 17 mM; 2 mM.
20 μmol of either substrate was polarized in a 3.3 T polarizer operating at […] and approx. 1.2 K. Following 45 minutes polarization the samples were dissolved in 5 ml 40 mM phosphate buffer pH 7.3. In the experiments with pyruvic acid an equimolar addition of NaOH was added to neutralize the acid. 2 ml of the dissolved substrate mixture was injected into the cells in suspension. A series of 20 degree pulses every 2 s (56 scans in total) was acquired. The acquisition was started just before injection of the hyperpolarized substrate. Data are presented as maximum metabolite signals, hyperpolarized 1-^13C lactate produced from either glucose or pyruvate.

[2] = tested on: human prostate cancer cells (PC-3); assay: Metabolism of hyperpolarized substrates in intact human prostate cancer cells; format: cell-based; conditions: for Metabolic conversion (a.u.) PC-3 cells: 20 million cells, maximum signal of product 1-13C lactate
Method: as §1, §2, §3, §4, §5
(§6) ^13C6-d7-glucose (22.8 mg, 0.118 mmol) was dissolved in polarization medium (25.0 mg). […]

[3] = tested on: human lymphocytes; assay: Metabolism of hyperpolarized substrates in intact human lymphocytes; format: cell-based; conditions: for Metabolic conversion (a.u.) Lymphocytes: 20 million cells, maximum signal of product 1-13C lactate
Method: Human lymphocytes were purified from whole blood. Whole blood samples were drawn from a healthy volunteer into heparinised venous blood collection tubes (Venosafe vacumtubes from Terumo). For each experiment the blood was purified freshly: Three and a half 10 mL tubes of blood were pooled in each of four 50 mL Leucosep (Greiner) tubes prepared with 15 mL Histopaque 1077 (Sigma). The Leucosep tubes were spun for 15 min at 800× g at 24 C. The plasma was removed and the white blood cells were transferred to a 50 mL falcon tube by decanting and diluted 1:2 in PBS-Mg—Ca for a total volume of 50 mL. The cells were sedimented by centrifugation at 250×g for 60 min. Diluting with trypan blue and counting in hemocytometer determined the total number of lymphocytes before sedimentation. All cells were viable and the total number of cells in each cell batch was approx. 60 million. The lymphocytes were redissolved to a concentration of 20 million cells in 500 μl 40 mM phosphate buffer pH 7.3.
as §2, §3, §4, §5, §6

[4] = tested on: breast cancer cells (MCF-7) in the background of human lymphocytes; assay: Co-polarized substrates in model voxels of breast cancer cells in lymphocyte background; format: cell-based; conditions: for Metabolic conversion (a.u) 50% cancer cells: 1 million MCF-7 cells and 20 million lymphocytes; for Metabolic conversion (a.u) 100% cancer cells: 2 million MCF-7 cells, 2x2x2 voxel model; for Metabolic conversion (a.u) 0% cancer cells: 40 million lymphocytes
Excerpt: The real time metabolism of breast cancer cells was compared with the metabolism of the lymph node background in model systems containing either only cancer cells (100% cancer), only lymphocytes (0% cancer) or a combination of the two cell types (50% cancer) in cellular concentrations expected to be present in a spatially resolved lymph node containing a macro metastasis. In the clinic, the interest is focused on macro metastasis since these are statistically those, which indicate aggressive cancers (P. Blumencranz, Surg Oncol Clin N Am 20 (2011) 467-485).
The model system was designed assuming a macro metastasis, which is defined to have a minimum diameter of 2 mm (P J. Diest et al., (2010) Breast disease 31: 65-81). In a 2×2×2 mm voxel, 50% of the volume will be cancer cells assuming that the macro metastasis is shaped as a sphere. Three experimental systems were established and carried out: 1) 2 million MCF-7 cells (corresponding to 100% cancer cells in a 2×2×2 voxel), 2) 1 million MCF-7 cells and 20 million lymphocytes (corresponding to 50% cancer cells in a 2×2×2 voxel) and 3) 40 million lymphocytes (corresponding to 0% cancer cells in a 2×2×2 voxel). The cells were grown and harvested or purified as described in example 3.10. The DNP preparations of 1-^13C-pyruvate and 1,3-^13C2-ethyl acetoacetate were made as described in examples 3.10. and 3.11. The substrates (20 μmol each) were co-polarized. The polarization, dissolution and administration to the cells were made as in example 3.11.

[5] = tested on: breast cancer cells (MDA-MB-231); assay: In cell 13C-NMR detection of 1,4-13C2-malate using 1,4-13C2-fumarate as hyperpolarized marker; format: cell-based, human; conditions: 5 million cells; 30 s; normalized to soluble protein; vs 184B5; FIG. 2
Method: Step 1: 1,4-^13C2 Fumaric acid (274 mg, 2.32 mmol) was dissolved in a DMSO solution (1660 μl) of trityl radical (Tris(8-carboxy-2,2,6,6-(tetra(methoxyethyl)-benzo-[1,2-4,5′]-bis-(1,3)-dithiole-4-yl)-methyl sodium salt) (19 mM) and gadolinium trimeric complex (Gadolinium chelate of 1,3,5-tris-(N-(DO3A-acetmido)-N-methyl-4-amino-2-methylphenyl)-[1,3,5]triazinane-2,4,6-trione)) (0.8 mM). A sample of this solution (32.5 mg) was hyperpolarized for 60 minutes, at 93.900 GHz and 1.3 K. The sample was dissolved in phosphate buffer (4 ml, pH 7.3, 40 mM) with addition of sodium hydroxide (22 μl, 12M) to neutralize the acid in the hyperpolarized sample.
Step 2: 100 μl of hyperpolarized sodium 1,4-^13C2-fumarate from step 1 was mixed into 500 μl RPMI medium containing 5 million breast cancer cells (MDA-MB-231, human epithelial breast cancer cell line) in a 5 mm NMR tube and placed in a 9.4 T NMR magnet. Signals of 1,4-^13C-malate were detected by acquiring a set of ^13C-MR spectra every 2 s with a 15 degree RF pulse. The amount of 1,4-^13C-malate was calculated 30 s after mixing the hyperpolarized sodium 1,4-^13C2-fumarate into the medium containing cells. Further, the amount of soluble protein in the MDA-MB-231 cells was determined, and the amount of 1,4-^13C-malate was normalized to the protein amount. […]

[6] = tested on: prostate cancer cells (PC-3); assay: In cell 13C-NMR detection of 1-13C-lactate using 1-13C-pyruvate as hyperpolarized marker; format: cell-based, human; conditions: 5 million cells; PC-3 vs PNT-1A; FIG. 1
Method: Step 1: 1-^13C pyruvic acid (1286 mg, 14.4 mmol) was mixed with 25 mg of trityl radical (Tris(8-carboxy-2,2,6,6-(tetra(methoxyethyl)-benzo-[1,2-4,5′]-bis-(1,3)-dithiole-4-yl)-methyl sodium salt) (15 mM) and gadolinium trimeric complex (Gadolinium chelate of 1,3,5-tris-(N-(DO3A-acetmido)-N-methyl-4-amino-2-methylphenyl)-[1,3,5]triazinane-2,4,6-trione)) (0.6 mM). A sample of this solution (9.2 mg) was hyperpolarized for 60 minutes, at 93.900 GHz and 1.3 K. The sample was dissolved in phosphate buffer (4 ml, pH 7.3, 40 mM) with addition of sodium hydroxide (11 μl, 12M) to neutralize the acid in the hyperpolarized sample. The hyperpolarized solution was further diluted with tempered (37° C.) buffer to 30 ml.
Step 2: 500 μl of hyperpolarized sodium 1-^13C-pyruvate from step 1 was mixed into 5 million prostate cancer cells (PC-3, human prostate cell adenocarcinoma) in a 10 mm NMR tube and placed in a 9.4 T NMR magnet. Signals of 1-^13C-pyruvate and 1-^13C-lactate were detected by acquiring a set of ^13C-MR spectra every 3 s with a 15 degree RF pulse and the signal from 1-^13C-lactate was quantified.
Using an identical protocol as outlined above, a second study was performed in healthy prostate cells (PNT-1A, immortalized healthy prostate cells).

| SMILES | hydrolysis to 1,3-13C2 acetoacetate ([1]; 20 million intact MCF-7 cells, FIG. 4) | hydrolysis to 1,3-13C2 acetoacetate ([2]; 20 million intact PC-3 cells, FIG. 4) | hydrolysis to 1,3-13C2 acetoacetate ([3]; 20 million intact lymphocytes, FIG. 4) | metabolic conversion, healthy lymphocytes over cancer cells ([3]; cancer cells quantified by limit-of-detection) | Metabolic conversion (a.u) 50% cancer cells [4] [a.u.] | Metabolic conversion (a.u) 100% cancer cells [4] | Metabolic conversion (a.u) 0% cancer cells [4] [a.u.] | concentration of 1,4-13C-malate in MDA-MB-231 cells compared to healthy breast cells [5] | 1-13C-lactate signal in PC-3 cells compared to non-cancerous prostate cells [6] | Metabolic conversion (a.u.) MCF-7 cells [1] [a.u.] | conversion in breast cancer cells over lymphocytes [1] [times] | Metabolic conversion (a.u.) PC-3 cells [2] [a.u.] | Metabolic conversion (a.u.) Lymphocytes [3] [a.u.] |
| --- | --- | --- | --- | --- | --- | --- | --- | --- | --- | --- | --- | --- | --- |
| CCO[13C](=O)C[13C](C)=O [1,3-^13C2 ethyl acetoacetate] | no conversion can be detected | no conversion can be detected | hydrolysed | approx. 33 times | 632 | < 14* a.u. | 1027 | – | – | – | – | – | – |
| O=[13C](O)/C=C/[13C](=O)O [1,4-^13C2-fumarate] | – | – | – | – | – | – | – | significantly higher | – | – | – | – | – |
| CC(=O)[13C](=O)O [1-^13C-pyruvate] | – | – | – | – | 1853 | 337 a.u. | 2620 | – | increased | 1000 | 50 | 200 | 40 |
| OC[C@H]1OC(O)[C@H](O)[C@@H](O)[C@@H]1O (some centres unmarked) [^13C6-d7-glucose] | – | – | – | – | – | – | – | – | – | 500 | 50 | 200 | 10 |
